These results are taken from PMC5958214, “Chloroplastic Serine Hydroxymethyltransferase From Medicago truncatula: A Structural Characterization” (Frontiers in Plant Science, 2018).

The target of assay [1] is T1, MtSHMT3 (chloroplastic serine hydroxymethyltransferase) (Medicago truncatula, UniProt G7ILW0).
T1 construct: gene MTR_2g018290; residues 82-533, targeting peptide removed (N-truncated at F82, begins FLDYGLSEA); His6-TEV tag cut, Ser-Asn-Ala linker left; E. coli BL21 Gold, pMCSG68; homotetramer, ~197 kDa theoretical; active site shared within tight dimer
T1 sequence (G7ILW0 entry or part of it): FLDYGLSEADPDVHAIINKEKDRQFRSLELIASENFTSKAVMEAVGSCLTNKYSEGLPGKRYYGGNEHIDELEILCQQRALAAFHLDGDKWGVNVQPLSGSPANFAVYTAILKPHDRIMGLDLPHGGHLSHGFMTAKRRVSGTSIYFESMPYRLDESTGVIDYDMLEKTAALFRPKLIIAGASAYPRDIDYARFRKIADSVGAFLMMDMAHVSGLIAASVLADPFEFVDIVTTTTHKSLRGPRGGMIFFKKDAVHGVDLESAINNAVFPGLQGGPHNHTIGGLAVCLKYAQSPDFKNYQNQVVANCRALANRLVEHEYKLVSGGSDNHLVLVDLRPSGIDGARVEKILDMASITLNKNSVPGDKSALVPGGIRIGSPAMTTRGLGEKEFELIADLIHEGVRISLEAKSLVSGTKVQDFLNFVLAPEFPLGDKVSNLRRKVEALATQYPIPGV
The assay can be described thus: X-ray crystallography, […] A. The class given is binding.

The target of assay [2] is T1, MtSHMT3 (chloroplastic serine hydroxymethyltransferase). Nature of the assay: X-ray crystallography, […] A. Type of assay: binding. The settings on record: covalent; internal aldimine (Schiff base) with K318; full occupancy in chains A and B; crystals from 55% Tacsimate pH 7.0; PLP from expression culture.
Assay [3] concerns the target chloroplast-targeted serine hydroxymethyltransferase from Medicago truncatula (MtSHMT3), residues 82-533 (Medicago truncatula). The assay can be described thus: SEC; HiLoad Superdex 200 16/60; 25 mM Hepes-NaOH pH 7.5, 100 mM KCl, 50 mM NaCl, 1 mM TCEP; standard curve from thyroglobulin, gamma-globulin, ovalbumin and myoglobin. (In gel filtration, larger molecules generally elute earlier.)

For assay [4] the target is unchanged. Nature of the assay: crystal structure; three non-isomorphous crystal forms (holo/apo in Tacsimate pH 7.0; Ser-soaked in MES pH 6.5, PEG 3350, ammonium acetate; selenourea-soaked); assemblies analysed with PISA.

Take `NCC(=O)O` [Gly, glycine]: the “X-ray crystallography, 1.91 A” value in assay [1] (Ser-soaked crystal, covalent PLP-Gly external aldimine in chains B and F, free Gly with PLP internal aldimine in chains E and H, no tetrahydrofolate) was “PLP-Gly external aldimine (chains B and F), and PLP internal aldimine with free Gly”.

As to `Cc1ncc(COP(=O)(O)O)c(C=O)c1O` [PLP, pyridoxal 5′-phosphate], the “X-ray crystallography, 1.74 A” value in assay [2] was “two protein chains (A and B) contain the PLP bound as a Schiff base internal aldimine”.

Consider `N[C@@H](CO)C(=O)O` [Ser, L-serine], for which, in assay [1] (covalent, PLP-Ser external aldimine in chains A and D, crystals soaked with 200 mM Ser for 2 h, pH 6.5, no tetrahydrofolate), the “X-ray crystallography, 1.91 A” value is “PLP-Ser external aldimine (chains A and D)”.

Usually stoichiometry N stands for a count of units in the complex or per binding partner. Regarding “chloroplast-targeted serine hydroxymethyltransferase from Medicago truncatula (MtSHMT3), residues 82-533 (enzyme)”, the stoichiometry N in assay [3] and in assay [4] was 4 throughout.
